{
  "source": "ChEMBL document CHEMBL5375968",
  "about": "“Peptide TK-HR from the Skin of Chinese Folk Medicine Frog Hoplobatrachus Rugulosus Accelerates Wound Healing via the Activation of the Neurokinin-1 Receptor” (J Med Chem, 2023)",
  "key": {"HUVEC [1]": {"test_system": "HUVEC", "test": "Induction of cell migration in Aprepitant-treated HUVEC cells assessed as healing rate at 20 uM measured after 48 hrs by scratch healing assay (reference value: 57.2 %)", "format": "functional, Homo sapiens"}, "RAW264.7 [2]": {"test_system": "RAW264.7", "test": "Upregulation of phosphorylated ERK level in Aprepitant-treated mouse RAW264.7 cells at 2.5 to 20 uM incubated for 4 hrs by Western blot analysis", "format": "functional, cell-based", "conditions": "dose 2.5-20 µM"}, "[3]": {"test": "Induction of wound healing in BALB/c mouse model of full-thickness wounds at 50 ug/ml, TOP bid pretreated with Aprepitant for 2 hrs followed by compound administration measured after 6 days (reference value: 69.3 %)", "format": "functional", "conditions": "dose 50 µg/ml, time 6 day"}, "HUVEC [4]": {"test_system": "HUVEC", "test": "Induction of cell migration in HUVEC cells assessed as formation of filopodia extensions at 20 uM measured after 24 hrs by immunofluorescence microscopy", "format": "functional, cell-based", "conditions": "Homo sapiens"}, "RAW264.7 [5]": {"test_system": "RAW264.7", "test": "Induction of phagocytosis in mouse RAW264.7 cells cultured with Escherichia coli ATCC 25922 assessed as number of engulfed bacteria at 20 uM incubated for 24 hrs followed by bacterial exposure measured after 1 hr by plate counting method (reference value: 225)", "format": "functional", "conditions": "time 25 hrs"}, "HaCaT [6]": {"test_system": "HaCaT", "test": "Induction of cell migration in human HaCaT cells assessed as actin stress fiber formation at peripheral side of cytoplasmic membrane at 20 uM measured after 24 hrs by immunofluorescence microscopy", "format": "functional, cell-based"}, "RAW264.7 [7]": {"test_system": "RAW264.7", "test": "Upregulation of phosphorylated JNK level in mouse RAW264.7 cells at 2.5 to 20 uM incubated for 4 hrs by Western blot analysis", "format": "functional, cell-based", "conditions": "dose 2.5-20 µM"}, "NIH3T3": {"test_system": "NIH3T3", "test": "Effect on cell migration in mouse 3T3 cells at 20 uM incubated upto 48 hrs by scratch healing assay", "format": "functional, cell-based"}, "RAW264.7 [8]": {"test_system": "RAW264.7", "test": "Upregulation of phosphorylated p38 level in Aprepitant-treated mouse RAW264.7 cells at 2.5 to 20 uM incubated for 4 hrs by Western blot analysis", "format": "functional, cell-based", "conditions": "dose 2.5-20 µM"}, "RAW264.7 [9]": {"test_system": "RAW264.7", "test": "Upregulation of phosphorylated Smad2 level in mouse RAW264.7 cells at 2.5 to 20 uM incubated for 4 hrs by Western blot analysis", "format": "functional, cell-based", "conditions": "dose 2.5-20 µM"}, "Mus musculus [10]": {"species_on_record": "Mus musculus", "test": "Induction of wound healing in BALB/c mouse model of full-thickness wounds assessed as increase in IL-10 level in wound skin at 50 ug/ml, TOP bid measured after 4 days by ELISA", "format": "functional", "conditions": "dose 50.0 µg/ml, time 4.0 day"}, "RAW264.7 [11]": {"test_system": "RAW264.7", "test": "(§1) Induction of phagocytosis in mouse RAW264.7 cells cultured with Escherichia coli ATCC 25922 assessed as number of surviving engulfed bacteria at 10 uM incubated for 24 hrs followed by bacterial exposure for 1 hr and further treated with gentamycin for 2 hrs by plate counting method (reference value: 37)", "format": "functional"}, "Mus musculus [12]": {"species_on_record": "Mus musculus", "test": "Induction of wound healing in BALB/c mouse model of full-thickness wounds assessed as alignment of collagen fibers close to normal skin at 50 to 200 ug/ml, TOP bid measured after 8 days by Masson's Trichome staining based analysis", "format": "functional", "conditions": "dose 50-200 µg/ml, time 8.0 day"}, "RAW264.7 [13]": {"test_system": "RAW264.7", "test": "Upregulation of phosphorylated Smad3 level in Aprepitant-treated mouse RAW264.7 cells at 2.5 to 20 uM incubated for 4 hrs by Western blot analysis", "format": "functional, cell-based", "conditions": "dose 2.5-20 µM"}, "[14]": {"test": "Induction of wound healing in BALB/c mouse model of full-thickness wounds at 50 ug/ml, TOP bid measured after 2 days (reference value: 30.4 %)", "format": "functional", "conditions": "dose 50 µg/ml, time 2 day"}, "Neutrophil [15]": {"test_system": "Neutrophil", "test": "Induction of cell migration in BALB/c mouse neutrophils incubated for 8 hrs by transwell migration assay", "format": "functional, cell-based", "conditions": "dose 5-40 µM"}, "[16]": {"test": "Induction of wound healing in BALB/c mouse model of full-thickness wounds assessed as recruitment of M1-type macrophages in wound skin at 50 ug/ml, TOP bid measured after 4 days by flow cytometry (reference value: 85.3 %)", "format": "functional", "conditions": "dose 50 µg/ml, time 4 day"}, "RAW264.7 [17]": {"test_system": "RAW264.7", "test": "Induction of phagocytosis in mouse RAW264.7 cells cultured with Escherichia coli ATCC 25922 assessed as number of engulfed bacteria at 10 uM incubated for 24 hrs followed by bacterial exposure measured after 1 hr by plate counting method (reference value: 225)", "format": "functional", "conditions": "time 25 hrs"}, "RAW264.7 [18]": {"test_system": "RAW264.7", "test": "Induction of cell migration in Aprepitant-treated mouse RAW264.7 cells at 5 to 20 uM incubated for 24 hrs by crystal violet staining based microscopy", "format": "functional", "conditions": "dose 5-20 µM"}, "[19]": {"test": "Induction of wound healing in BALB/c mouse model of full-thickness wounds at 50 ug/ml, TOP bid measured after 8 days (reference value: 81.0 %)", "format": "functional", "conditions": "dose 50 µg/ml, time 8 day"}, "RAW264.7 [20]": {"test_system": "RAW264.7", "test": "Induction of phagocytosis in mouse RAW264.7 cells cultured with Escherichia coli ATCC 25922 assessed as number of engulfed bacteria at 5 uM incubated for 24 hrs followed by bacterial exposure measured after 1 hr by plate counting method (reference value: 225)", "format": "functional", "conditions": "time 25 hrs"}, "RAW264.7 [21]": {"test_system": "RAW264.7", "test": "Cytotoxicity against mouse RAW264.7 cells assessed as cell viability at 5 to 40 uM incubated for 24 hrs by MTT assay", "format": "toxicity, cell-based", "conditions": "raw264.7, 24 h, dose 5-40 µM"}, "Mus musculus [22]": {"species_on_record": "Mus musculus", "test": "Induction of wound healing in BALB/c mouse model of full-thickness wounds assessed as reduction in epidermal cells in wound skin at 50 ug/ml, TOP bid measured after 4 days by IHC analysis", "format": "functional, cell-based", "conditions": "dose 50.0 µg/ml, time 4.0 day"}, "RAW264.7 [23]": {"test_system": "RAW264.7", "test": "Induction of cell migration in mouse RAW264.7 cells incubated for 24 hrs by crystal violet staining based microscopy", "format": "functional", "conditions": "dose 5-20 µM"}, "HaCaT [24]": {"test_system": "HaCaT", "test": "Induction of cell migration in Aprepitant-treated human HaCaT cells assessed as healing rate at 20 uM measured after 24 hrs by scratch healing assay (reference value: 36.8 %)", "format": "functional"}, "Neutrophil [25]": {"test_system": "Neutrophil", "test": "Induction of chemotaxis in BALB/c mouse neutrophils assessed as increase in ratio of cell polarization at 40 uM measured for 15 mins by Zigmond-chamber based microscopy (reference value: 14.6 %)", "format": "functional", "conditions": "0.25 h"}, "Neutrophil [26]": {"test_system": "Neutrophil", "test": "Induction of ROS production in BALB/c mouse neutrophils at 10 to 20 uM incubated for 2 hrs by DCFH-DA staining based analysis", "format": "functional, cell-based", "conditions": "dose 10-20 µM"}, "RAW264.7 [27]": {"test_system": "RAW264.7", "test": "as §1, with “5” for “10”", "format": "functional"}, "Aorta": {"test_system": "Aorta", "test": "Ex vivo angiogenic activity in C57BL/6 mouse aortic ring assessed as increase in sprouting by measuring vessel outgrowth area at 20 uM measured for 7 days by microscopic analysis relative to control", "format": "functional", "conditions": "time 7 day"}, "HUVEC [28]": {"test_system": "HUVEC", "test": "Induction of cell migration in Aprepitant-treated HUVEC cells assessed as healing rate at 20 uM measured after 24 hrs by scratch healing assay (reference value: 30.2 %)", "format": "functional, Homo sapiens"}, "Bacillus subtilis": {"test_system": "Bacillus subtilis", "test": "Antimicrobial activity against Bacillus subtilis CMCC 63501 assessed as microbial growth inhibition at 100 uM", "format": "functional, organism-based"}, "RAW264.7 [29]": {"test_system": "RAW264.7", "test": "Induction of IL-6 expression in mouse RAW264.7 cells incubated for 24 hrs by ELISA", "format": "functional, cell-based", "conditions": "dose 2.5-20 µM"}},
  "note": "The source made the active and inactive calls. The calls are words filed in the database; no cut-off is given here.",
  "data": [
    {"substance": "H-KPNPDRFYGLM-NH2", "values": [
      {"measurement": "Activity", "setting": "HUVEC [1]", "value": 65, "unit": "%"},
      {"measurement": "Activity", "setting": "RAW264.7 [2]", "value": "inactive"},
      {"measurement": "Activity", "setting": "[3]", "value": 69.4, "unit": "%"},
      {"measurement": "Activity", "setting": "HUVEC [4]", "value": "Active"},
      {"measurement": "Activity", "setting": "RAW264.7 [5]", "value": 350},
      {"measurement": "Activity", "setting": "HaCaT [6]", "value": "Active"},
      {"measurement": "Activity", "setting": "RAW264.7 [7]", "value": "Active"},
      {"measurement": "Activity", "setting": "NIH3T3", "value": "inactive"},
      {"measurement": "Activity", "setting": "RAW264.7 [8]", "value": "inactive"},
      {"measurement": "Activity", "setting": "RAW264.7 [9]", "value": "Active"},
      {"measurement": "Activity", "setting": "Mus musculus [10]", "value": "Active"},
      {"measurement": "Activity", "setting": "RAW264.7 [11]", "value": 25},
      {"measurement": "Activity", "setting": "Mus musculus [12]", "value": "Active"},
      {"measurement": "Activity", "setting": "RAW264.7 [13]", "value": "inactive"},
      {"measurement": "Activity", "setting": "[14]", "value": 38.9, "unit": "%"},
      {"measurement": "Activity", "setting": "Neutrophil [15]", "value": "Dose-Dependent Effect"},
      {"measurement": "Activity", "setting": "[16]", "value": 69.9, "unit": "%"},
      {"measurement": "Activity", "setting": "RAW264.7 [17]", "value": 338},
      {"measurement": "Activity", "setting": "RAW264.7 [18]", "value": "inactive"},
      {"measurement": "Activity", "setting": "[19]", "value": 93.1, "unit": "%"},
      {"measurement": "Activity", "setting": "RAW264.7 [20]", "value": 302},
      {"measurement": "Activity", "setting": "RAW264.7 [21]", "value": "Non-Toxic"},
      {"measurement": "Activity", "setting": "Mus musculus [22]", "value": "Active"},
      {"measurement": "Activity", "setting": "RAW264.7 [23]", "value": "Dose-Dependent Effect"},
      {"measurement": "Activity", "setting": "HaCaT [24]", "value": 41.7, "unit": "%"},
      {"measurement": "Activity", "setting": "Neutrophil [25]", "value": 50.4, "unit": "%"},
      {"measurement": "Activity", "setting": "Neutrophil [26]", "value": "Active"},
      {"measurement": "Activity", "setting": "RAW264.7 [27]", "value": 29},
      {"measurement": "Activity", "setting": "Aorta", "value": 193.8, "unit": "%"},
      {"measurement": "Activity", "setting": "HUVEC [28]", "value": 35.9, "unit": "%"},
      {"measurement": "Activity", "setting": "Bacillus subtilis", "value": "inactive"},
      {"measurement": "Activity", "setting": "RAW264.7 [29]", "value": "Dose-Dependent Effect"}
    ]}
  ]
}
